Assay [1] has as its target Dual specificity testis-specific protein kinase 2 (Homo sapiens) (UniProt Q96S53). Nature of the assay: Selectivity interaction (LanthaScreen Eu Kinase Binding Assay) EUB0001632a TESK2. As to conditions: at 10 µM. (In general: TR-FRET usually uses a lanthanide donor and a delayed reading to cut background.)
The target in assay [2] is Serine/threonine-protein kinase B-raf (Homo sapiens) (UniProt P15056). Nature of the assay: Selectivity interaction (SelectScreen profiling (Invitrogen)) EUB0000607a BRAF. The conditions noted are these: at 2 µM.
Assay [3] has as its target Angiopoietin-1 receptor (Homo sapiens) (UniProt Q02763). Nature of the assay: Selectivity interaction (KinomeScan (DiscoverX)) EUB0000607a TEK. The conditions noted are these: at 10 µM.
Assay [4] addresses MAP kinase-interacting serine/threonine-protein kinase 1 (Homo sapiens) (UniProt Q9BUB5). Nature of the assay: Selectivity interaction (KinomeScan (DiscoverX)) EUB0000666a MKNK1. As to conditions: at 10 µM.
Assay [5] concerns the target Bone morphogenetic protein receptor type-1A (Homo sapiens, UniProt P36894). Nature of the assay: Selectivity interaction (KinomeScan (DiscoverX)) EUB0001079a BMPR1A. The conditions noted are these: at 1 µM.
In assay [6] the target is T1, Serine/threonine-protein kinase ULK3 (Homo sapiens) (UniProt Q6PHR2).
T1 sequence (whole entry): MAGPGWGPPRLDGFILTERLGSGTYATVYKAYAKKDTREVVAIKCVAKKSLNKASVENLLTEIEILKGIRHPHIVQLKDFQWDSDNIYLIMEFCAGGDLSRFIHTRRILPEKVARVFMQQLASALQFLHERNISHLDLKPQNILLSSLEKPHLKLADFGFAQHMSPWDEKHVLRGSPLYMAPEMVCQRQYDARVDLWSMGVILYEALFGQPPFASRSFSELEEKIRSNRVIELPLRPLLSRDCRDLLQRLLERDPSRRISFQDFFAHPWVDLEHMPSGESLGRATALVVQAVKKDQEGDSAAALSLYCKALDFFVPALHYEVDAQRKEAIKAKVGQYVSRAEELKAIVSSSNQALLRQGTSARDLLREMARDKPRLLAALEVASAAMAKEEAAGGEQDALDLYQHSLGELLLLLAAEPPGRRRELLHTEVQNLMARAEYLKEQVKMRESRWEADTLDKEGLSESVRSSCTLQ
Nature of the assay: Selectivity interaction (ActivX KiNativ screen (ex vivo kinase selectivity in human PBMCs)) EUB0001619a ULK3. The conditions noted are these: PBMC, at 1 µM. It counts as cell-based.

Assay [7] addresses Calcium/calmodulin-dependent protein kinase type 1D (Homo sapiens) (UniProt Q8IU85). Nature of the assay: Selectivity interaction (ActivX KiNativ screen (kinase selectivity in THP-1 cell lysates)) EUB0000639a CAMK1D. In kind it is subcellular. The conditions noted are these: lysate, at 0.01 µM.
For assay [8], the target named is Ribosomal protein S6 kinase alpha-5 (Homo sapiens) (UniProt O75582). The conditions noted are these: at 10 µM.
Assay [9] addresses Serine/threonine-protein kinase PRP4 homolog (Homo sapiens) (UniProt Q13523). Nature of the assay: Selectivity interaction (KinomeScan (DiscoverX)) EUB0000092b PRPF4B. As to conditions: at 10 µM.
In assay [10] the target is T2, Cyclin-G-associated kinase (Homo sapiens) (UniProt O14976).
T2 sequence (whole entry): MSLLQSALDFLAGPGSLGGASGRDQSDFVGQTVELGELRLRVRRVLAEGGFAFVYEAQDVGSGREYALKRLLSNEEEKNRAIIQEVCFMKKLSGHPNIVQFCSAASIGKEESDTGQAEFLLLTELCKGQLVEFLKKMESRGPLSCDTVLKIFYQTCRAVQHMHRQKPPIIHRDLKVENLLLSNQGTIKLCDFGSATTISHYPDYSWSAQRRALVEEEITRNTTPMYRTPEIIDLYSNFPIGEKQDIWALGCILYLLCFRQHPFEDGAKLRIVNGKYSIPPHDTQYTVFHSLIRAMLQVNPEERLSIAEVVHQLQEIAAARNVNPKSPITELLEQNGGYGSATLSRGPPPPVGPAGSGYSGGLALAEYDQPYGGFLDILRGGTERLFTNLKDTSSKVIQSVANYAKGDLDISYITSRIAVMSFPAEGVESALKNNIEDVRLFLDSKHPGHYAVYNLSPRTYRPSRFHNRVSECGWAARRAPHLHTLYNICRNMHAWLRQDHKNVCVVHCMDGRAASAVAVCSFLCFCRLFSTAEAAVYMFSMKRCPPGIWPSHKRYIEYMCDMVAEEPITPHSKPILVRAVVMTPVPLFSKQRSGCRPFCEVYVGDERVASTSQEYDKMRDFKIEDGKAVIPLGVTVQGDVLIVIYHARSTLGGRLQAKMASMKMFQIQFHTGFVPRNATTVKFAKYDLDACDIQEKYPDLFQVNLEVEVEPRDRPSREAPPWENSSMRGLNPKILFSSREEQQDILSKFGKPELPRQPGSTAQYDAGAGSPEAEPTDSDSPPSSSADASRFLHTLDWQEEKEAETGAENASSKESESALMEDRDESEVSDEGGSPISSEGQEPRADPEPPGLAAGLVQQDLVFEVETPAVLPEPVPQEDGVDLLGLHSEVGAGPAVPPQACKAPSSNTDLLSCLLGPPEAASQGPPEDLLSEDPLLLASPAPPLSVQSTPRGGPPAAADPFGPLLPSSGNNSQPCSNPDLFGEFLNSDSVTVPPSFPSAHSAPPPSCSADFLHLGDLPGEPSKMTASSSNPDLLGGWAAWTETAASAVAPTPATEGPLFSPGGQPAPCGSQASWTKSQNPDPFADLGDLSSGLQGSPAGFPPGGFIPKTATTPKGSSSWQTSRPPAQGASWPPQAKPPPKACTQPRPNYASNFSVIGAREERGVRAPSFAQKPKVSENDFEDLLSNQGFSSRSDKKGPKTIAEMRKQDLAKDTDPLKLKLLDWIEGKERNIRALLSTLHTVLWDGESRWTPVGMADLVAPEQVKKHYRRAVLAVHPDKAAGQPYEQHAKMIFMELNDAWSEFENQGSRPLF
Nature of the assay: Selectivity interaction (Kinase panel (DSF assay)) EUB0001559a GAK. On the technique in general: Differential scanning fluorimetry follows unfolding on heating by fluorescence.

The target in assay [11] is Ribosomal protein S6 kinase alpha-2 (Homo sapiens) (UniProt Q15349). Nature of the assay: Selectivity interaction (KinomeScan (DiscoverX)) EUB0000618a RPS6KA2. The conditions noted are these: at 10 µM.
The target of assay [12] is Rho-associated protein kinase 2 (Homo sapiens, UniProt O75116). Nature of the assay: Selectivity interaction (KinomeScan (DiscoverX)) EUB0000595a ROCK2. The conditions noted are these: at 10 µM.

Chain of Calcium/calmodulin-dependent protein kinase type 1D (Homo sapiens) (Q8IU85 whole entry, looked up): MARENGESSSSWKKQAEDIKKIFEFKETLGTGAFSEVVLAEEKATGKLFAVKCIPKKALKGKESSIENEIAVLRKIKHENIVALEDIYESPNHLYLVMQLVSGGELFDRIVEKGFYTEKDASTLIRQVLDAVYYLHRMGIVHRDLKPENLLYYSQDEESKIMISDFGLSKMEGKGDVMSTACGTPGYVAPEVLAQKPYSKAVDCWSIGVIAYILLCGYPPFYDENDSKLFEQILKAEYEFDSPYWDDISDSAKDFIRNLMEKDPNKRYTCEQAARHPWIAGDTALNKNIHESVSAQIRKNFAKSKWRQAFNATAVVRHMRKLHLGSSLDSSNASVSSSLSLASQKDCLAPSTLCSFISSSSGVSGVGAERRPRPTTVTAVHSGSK
Chain of Ribosomal protein S6 kinase alpha-5 (Homo sapiens) (O75582 whole entry, looked up): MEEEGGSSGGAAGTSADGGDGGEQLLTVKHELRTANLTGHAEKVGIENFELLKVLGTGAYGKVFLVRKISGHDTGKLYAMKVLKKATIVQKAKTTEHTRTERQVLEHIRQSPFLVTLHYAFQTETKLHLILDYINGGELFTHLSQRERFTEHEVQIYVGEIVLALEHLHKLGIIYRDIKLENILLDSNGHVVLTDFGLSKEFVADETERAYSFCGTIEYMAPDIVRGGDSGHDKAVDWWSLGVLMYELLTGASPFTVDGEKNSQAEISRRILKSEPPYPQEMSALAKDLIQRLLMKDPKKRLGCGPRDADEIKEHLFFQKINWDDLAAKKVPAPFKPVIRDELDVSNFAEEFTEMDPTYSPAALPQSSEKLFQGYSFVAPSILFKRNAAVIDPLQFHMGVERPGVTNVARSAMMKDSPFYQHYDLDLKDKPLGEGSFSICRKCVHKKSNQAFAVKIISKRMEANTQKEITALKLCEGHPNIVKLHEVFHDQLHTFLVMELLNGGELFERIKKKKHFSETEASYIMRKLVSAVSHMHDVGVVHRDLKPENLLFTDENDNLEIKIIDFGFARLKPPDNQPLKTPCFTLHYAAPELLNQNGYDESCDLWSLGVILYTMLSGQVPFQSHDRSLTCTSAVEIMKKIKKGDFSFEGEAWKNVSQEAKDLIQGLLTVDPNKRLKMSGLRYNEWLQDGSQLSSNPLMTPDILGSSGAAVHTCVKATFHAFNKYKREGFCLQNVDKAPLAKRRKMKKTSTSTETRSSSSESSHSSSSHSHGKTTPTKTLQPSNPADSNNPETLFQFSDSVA
Chain of Serine/threonine-protein kinase B-raf (Homo sapiens) (P15056 whole entry): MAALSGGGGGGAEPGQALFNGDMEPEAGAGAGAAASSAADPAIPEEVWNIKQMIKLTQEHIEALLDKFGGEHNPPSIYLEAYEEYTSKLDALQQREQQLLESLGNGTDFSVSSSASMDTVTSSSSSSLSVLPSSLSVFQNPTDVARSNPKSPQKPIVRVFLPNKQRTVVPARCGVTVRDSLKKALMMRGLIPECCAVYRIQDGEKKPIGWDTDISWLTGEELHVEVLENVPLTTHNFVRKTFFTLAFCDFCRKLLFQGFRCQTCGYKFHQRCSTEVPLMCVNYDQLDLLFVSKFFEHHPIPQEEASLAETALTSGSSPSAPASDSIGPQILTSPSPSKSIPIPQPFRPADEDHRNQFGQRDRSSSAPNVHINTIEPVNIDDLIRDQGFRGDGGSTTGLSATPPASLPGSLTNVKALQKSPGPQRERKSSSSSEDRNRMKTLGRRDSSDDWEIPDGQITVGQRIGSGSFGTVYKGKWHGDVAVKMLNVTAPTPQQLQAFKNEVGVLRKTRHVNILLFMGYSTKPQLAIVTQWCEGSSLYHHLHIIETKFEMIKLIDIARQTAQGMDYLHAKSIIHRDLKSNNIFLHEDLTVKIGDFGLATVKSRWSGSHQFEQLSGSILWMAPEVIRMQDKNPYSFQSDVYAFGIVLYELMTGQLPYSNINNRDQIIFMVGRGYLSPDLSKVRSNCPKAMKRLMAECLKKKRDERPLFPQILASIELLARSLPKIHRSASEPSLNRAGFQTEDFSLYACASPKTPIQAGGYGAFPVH
Chain of Serine/threonine-protein kinase PRP4 homolog (Homo sapiens) (Q13523 whole entry): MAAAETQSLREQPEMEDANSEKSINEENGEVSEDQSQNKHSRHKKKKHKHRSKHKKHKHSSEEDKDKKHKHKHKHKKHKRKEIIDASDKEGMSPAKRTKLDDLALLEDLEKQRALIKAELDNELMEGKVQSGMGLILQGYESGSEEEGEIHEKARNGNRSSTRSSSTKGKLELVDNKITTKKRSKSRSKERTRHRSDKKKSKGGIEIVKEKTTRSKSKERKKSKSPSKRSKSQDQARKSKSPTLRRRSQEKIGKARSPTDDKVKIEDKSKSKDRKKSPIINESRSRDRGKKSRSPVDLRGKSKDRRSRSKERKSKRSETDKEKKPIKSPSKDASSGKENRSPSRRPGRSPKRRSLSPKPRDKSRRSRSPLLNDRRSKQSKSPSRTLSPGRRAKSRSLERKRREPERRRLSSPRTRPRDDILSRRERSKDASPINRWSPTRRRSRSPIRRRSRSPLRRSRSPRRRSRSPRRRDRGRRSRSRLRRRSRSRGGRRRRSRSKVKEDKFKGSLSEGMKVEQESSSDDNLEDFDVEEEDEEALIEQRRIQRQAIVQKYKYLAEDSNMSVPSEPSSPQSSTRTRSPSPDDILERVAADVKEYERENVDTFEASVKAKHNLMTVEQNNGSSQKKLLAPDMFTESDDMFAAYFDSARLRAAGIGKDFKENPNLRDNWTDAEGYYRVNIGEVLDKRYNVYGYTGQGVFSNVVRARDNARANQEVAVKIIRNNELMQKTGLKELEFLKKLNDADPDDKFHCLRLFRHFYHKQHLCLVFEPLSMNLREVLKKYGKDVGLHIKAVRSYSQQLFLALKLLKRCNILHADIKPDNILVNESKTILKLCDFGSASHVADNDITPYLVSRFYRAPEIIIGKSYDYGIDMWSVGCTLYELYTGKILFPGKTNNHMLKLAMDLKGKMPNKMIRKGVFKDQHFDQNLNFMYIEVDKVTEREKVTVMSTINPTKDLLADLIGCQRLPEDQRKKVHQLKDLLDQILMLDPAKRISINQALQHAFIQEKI
Chain of Angiopoietin-1 receptor (Homo sapiens) (Q02763 whole entry): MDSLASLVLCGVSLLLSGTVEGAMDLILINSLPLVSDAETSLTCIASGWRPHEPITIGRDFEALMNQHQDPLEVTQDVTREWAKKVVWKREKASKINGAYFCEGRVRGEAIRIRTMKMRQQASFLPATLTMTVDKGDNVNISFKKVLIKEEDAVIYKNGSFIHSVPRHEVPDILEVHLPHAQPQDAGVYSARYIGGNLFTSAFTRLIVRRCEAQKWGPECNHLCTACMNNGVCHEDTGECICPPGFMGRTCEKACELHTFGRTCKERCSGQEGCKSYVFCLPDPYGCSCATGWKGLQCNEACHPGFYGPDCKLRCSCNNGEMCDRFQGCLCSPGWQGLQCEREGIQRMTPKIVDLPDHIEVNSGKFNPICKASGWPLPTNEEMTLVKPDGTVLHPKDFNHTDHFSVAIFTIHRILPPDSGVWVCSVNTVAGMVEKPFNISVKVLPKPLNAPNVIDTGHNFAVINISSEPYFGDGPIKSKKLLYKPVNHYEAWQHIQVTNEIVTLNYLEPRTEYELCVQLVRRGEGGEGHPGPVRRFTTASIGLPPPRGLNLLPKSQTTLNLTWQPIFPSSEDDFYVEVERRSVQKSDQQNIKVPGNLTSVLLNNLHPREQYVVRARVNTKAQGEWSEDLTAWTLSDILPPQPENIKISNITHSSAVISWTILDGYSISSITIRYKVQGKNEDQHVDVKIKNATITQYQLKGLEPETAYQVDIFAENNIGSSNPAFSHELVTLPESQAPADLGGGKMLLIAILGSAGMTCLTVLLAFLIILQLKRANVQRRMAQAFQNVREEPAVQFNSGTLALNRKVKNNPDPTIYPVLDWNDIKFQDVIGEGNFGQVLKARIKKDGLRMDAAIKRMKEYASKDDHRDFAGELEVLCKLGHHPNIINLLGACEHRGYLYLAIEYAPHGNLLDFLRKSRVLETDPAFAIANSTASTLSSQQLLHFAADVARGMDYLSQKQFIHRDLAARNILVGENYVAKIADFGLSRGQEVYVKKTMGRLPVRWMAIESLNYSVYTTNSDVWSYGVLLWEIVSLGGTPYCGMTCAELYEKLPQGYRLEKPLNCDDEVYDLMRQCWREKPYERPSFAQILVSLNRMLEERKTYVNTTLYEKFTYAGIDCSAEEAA
Chain of Bone morphogenetic protein receptor type-1A (P36894 whole entry): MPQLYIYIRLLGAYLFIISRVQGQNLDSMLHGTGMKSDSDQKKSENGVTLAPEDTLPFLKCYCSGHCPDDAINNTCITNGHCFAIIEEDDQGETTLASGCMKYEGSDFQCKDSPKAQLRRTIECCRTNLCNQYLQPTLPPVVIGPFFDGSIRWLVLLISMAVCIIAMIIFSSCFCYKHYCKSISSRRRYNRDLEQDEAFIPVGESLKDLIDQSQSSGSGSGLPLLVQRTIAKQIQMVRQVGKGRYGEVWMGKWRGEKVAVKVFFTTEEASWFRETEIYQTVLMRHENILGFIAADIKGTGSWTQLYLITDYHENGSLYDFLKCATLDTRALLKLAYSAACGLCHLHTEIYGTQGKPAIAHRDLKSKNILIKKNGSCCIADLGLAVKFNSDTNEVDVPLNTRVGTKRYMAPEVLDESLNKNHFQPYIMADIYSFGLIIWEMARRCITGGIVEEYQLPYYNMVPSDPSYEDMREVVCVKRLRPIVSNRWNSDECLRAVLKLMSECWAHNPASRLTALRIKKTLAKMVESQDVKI

In the case of `Cn1cc(-n2cnc3c(NCc4nc5cc(Cl)c(Cl)cc5[nH]4)nc(N4CCOCC4)nc32)cn1`, the % of inhibition in assay [1] was found to be 0.732%.
Consider `CNC(=O)Nc1ccc(-c2nc(N3CC4CCC(C3)O4)c3cnn(C4CCC5(CC4)OCCO5)c3n2)cc1`, for which the % of inhibition in assay [2] is -16%. In assay [3], this molecule gave a % of control of 100%.
Regarding `O=C(NOC[C@H](O)CO)c1ccc(F)c(F)c1Nc1ccc(I)cc1F`, in assay [4], the % of control worked out at 100%.
As for `Nc1cnc(N2CCc3cc(S(=O)(=O)Nc4c(F)cc(Cl)cc4F)cc(N4CCCC4=O)c32)nc1` [TP-020n], in assay [5], the % of control is 91%.
As for `N#Cc1cccc(-c2c[nH]c3ncnc(N4CCOCC4)c23)c1`, in assay [6], the % of inhibition was 5%.
With `CC[C@@H]1[C@H](F)C(=O)N[C@@H]1COc1nccc2cc(C(N)=O)c(OC)cc12` [ZIMLOVISERTIB], the % of inhibition in assay [7] is -1.8%.
In turn, `CCN(CC)CCCCNc1ncc2cc(-c3cc(OC)cc(OC)c3)c(NC(=O)NC(C)(C)C)nc2n1` came in with a % of control in [8] of 100%.
In [9], `CCC(=O)N1CCN(c2ccc(-n3c(=O)ccc4cnc5ccc(-c6cnc7ccccc7c6)cc5c43)cc2C(F)(F)F)CC1` returned a % of control of 100%.
Turning to `CN(C(=O)c1cnn2cccnc12)c1cc2c(cc1N1CCOCC1)C(=O)N(C[C@@H](F)C(C)(C)O)C2`, the dTM in assay [10] was 0.1 K.
In turn, `O[C@H]1CC[C@H](Nc2ncc3nc(Nc4c(F)cc(F)cc4F)n([C@H]4CCOC4)c3n2)CC1` gave a % of control in [11] of 91%.
For `COCC(=O)NC/C=C/c1ccc2ncnc(Nc3ccc(Oc4ccc(C)nc4)c(C)c3)c2c1` [CP-724714], the % of control in assay [12] was 100%.

The record behind these values is ChEMBL document CHEMBL5465560, “Selectivity Literature for EUbOPEN Chemogenomic Library” (2024).
